Assay results from US10822315B2, “5-benzylidene-4-oxazolidinones” (NORTH CAROLINA STATE UNIVERSITY, priority 2016, dated 2020).
Converted amounts (≈) assume the structure as drawn. Like-named read-outs stand apart in the source and are kept apart here.

Key:
MRSA ATCC BAA-44 [1] = experiment: Biofilm dispersion assay (crystal violet, pre-formed biofilm); assay type: cell-based; conditions: Staphylococcus aureus, Table 2
MRSA Strain 1685 [2] = experiment: Biofilm inhibition assay (crystal violet); assay type: cell-based; conditions: Staphylococcus aureus, read-out: % Biofilm Inhibition (5/40 μM)
Protocol: (§1) General Information. Methicillin-resistant Staphylococcus aureus (MRSA) strains were obtained from the Laboratory of Professor Christian Melander (NCSU) ATCC (33591, BAA 44, BAA 1685, BAA 1770, BAA 43 300) and colonies were grown on solid media as instructed. Mueller-Hinton broth (MHB, 211443-BD), tryptic soy broth (TSB, Remel: R455052) and D-glucose (CAS: 492-62-6) were purchased from Fisher Scientific. Tryptic soy agar (TSA, cat. #22091) and Linezolid (cat. # P70014) were purchased from Sigma-Aldrich. Bacteria for biofilm inhibition and dispersion assays were cultured overnight in TSBG (tryptic soy broth with 0.5% glucose supplement). All assays were run in duplicate and repeated at least two separate times for MIC assays and at least four separate times for biofilm inhibition and dispersion assays. All compounds were dissolved molecular biology grade DMSO as 100 mM stock solutions and further diluted to 10 and 1 mM stock solutions as needed. Optical densities were measured using a Thermo Scientific Genesys 20 spectrophotometer. Data for biofilm inhibition and dispersion assays was collected using a BioTek ELx808 Microplate Reader. All graphs were generated and analyzed using GraphPad Prism 7.
(§2) Biofilm Inhibition Assay. Studies were performed using the standard method described in S. A. Rogers and C. Melander, Angew Chem Int Ed, 2008, 47, 5229-5231. Briefly, biofilm inhibition assays were performed by taking an overnight culture of bacterial strain and subculturing it at an OD600 of 0.01 into the necessary growth liquid medium (LB for A. baumannii, LBNS for P. aeruginosa, Stainer-Scholte medium that was supplemented with 10 μL/mL of 100× nutrient complex for B. bronchiseptica and TSB w/0.3% glucose for S. aureus) for the strain. The compound being tested was then added at a predetermined concentration and then aliquoted (100 μL) into the wells of a 96-well PVC microtiter plate (wells not used for samples are filled with 100 μL of de-ionized water). Plates were then wrapped in GLAD Press n' Seal and incubated under stationary conditions at 37° C. After 24 hours, the media was discarded from the wells and the plates were washed thoroughly with tap water. Plates were then stained with 100 μL of 0.1% solution of crystal violet (CV) and then incubated at an ambient temperature for 30 minutes. Sample plates were then washed with tap water again and the remaining stain was solubilized with 200 μL of 95% ethanol. Biofilm inhibition was quantitated by measuring the OD540 for each well by transferring 125 μL of the solubilized CV stain into a polystyrene microtiter dish for analysis. Biofilm inhibition was quantified by measuring the OD540 of each well and calculated as a percentage of the control (no compound); a negative control lane wherein no biofilm was formed served as a background and was subtracted out.
(§3) Percent inhibition was then plotted against concentration in Prism 7. Each of the four experiments were plotted separately and analyzed by a normalized nonlinear regression. The IC50 values reported represent an arithmetic mean of the four IC50 values. Biofilm data represent four separate experiments, with each experiment performed in duplicate (average of 8 data points for each concentration tested, unless otherwise noted)

MRSA Strain 43300 [3] = experiment: Biofilm inhibition assay (crystal violet); assay type: cell-based; conditions: Staphylococcus aureus, read-out: % Biofilm Inhibition (5/40 μM)
Protocol: as §1, §2, §3

planktonic bacteria = experiment: Growth curve analysis; assay type: cell-based
MRSA ATCC BAA-44 [4] = experiment: Broth microdilution MIC determination; assay type: cell-based, Staphylococcus aureus; conditions: for MIC: Staphylococcus aureus
MRSA Strain 1770 = experiment: Biofilm dispersion assay (crystal violet); assay type: cell-based, Staphylococcus aureus
Protocol: as §1
(§4) Biofilm Dispersion Assay. Studies were performed using the standard method described in J. J. Richards, T. E. Ballard and C. Melander, Org Biomol Chem, 2008, 6, 1356-1363. Briefly, dispersion assays were performed by taking an overnight culture of bacterial strain and subculturing it at an OD600 of 0.01 into the necessary growth liquid medium. The resulting bacterial suspension was aliquoted (100 μL) into the wells of a 96-well PVC microtiter plate. Plates were then wrapped in GLAD Press n' Seal followed by an incubation under stationary conditions at an ambient temperature. After 24 hours, the media was discarded from the wells and the plates were washed thoroughly with tap water. Predetermined concentrations of the test compound were then made in the same medium used to initially grow the biofilms and then aliquoted (100 μL) into the wells of the 96-well PVC microtiter plate with the established biofilms. Plates were then wrapped in GLAD Press n'Seal and incubated under stationary conditions at 37° C. After 24 hours, the media was discarded from the wells and the plates were washed thoroughly with tap water. Plates were then stained with 100 μL of 0.1% solution of crystal violet (CV) and then incubated at room temperature for 30 minutes. Plates were then washed with tap water again and the remaining stain was solubilized with 200 μL of 95% ethanol. Biofilm dispersion was quantitated by measuring the OD540 for each well by transferring 125 μL of the solubilized CV stain into a polystyrene microtiter dish for analysis. Biofilm inhibition was quantified by measuring the OD540 of each well and calculated as a percentage of the control (no compound), a negative control lane wherein no biofilm was formed served as a background and was subtracted out.
as §3, with “dispersion” for “inhibition”

MRSA Strain 1685 [5] = experiment: Biofilm dispersion assay (crystal violet); assay type: cell-based, Staphylococcus aureus
Protocol: as §1, §4
as §3, with “dispersion” for “inhibition”

MRSA Strain 43300 [6] = experiment: Biofilm dispersion assay (crystal violet); assay type: cell-based, Staphylococcus aureus; conditions: for % Biofilm Dispersion (5/40 μM): MRSA strain 43300
Protocol: as §1, §4
as §3, with “dispersion” for “inhibition”

[7] = MRSA ATCC BAA 44, Table 2, read-out: MIC
[8] = MRSA ATCC BAA-44, Table 1, read-out: Antimicrobial Activity MIC

SMILES	inhibition at 40 µM (MRSA ATCC BAA-44 [1])	inhibition at 5 µM (MRSA Strain 1685 [2])	inhibition at 40 µM (MRSA Strain 1685 [2])	inhibition at 5 µM (MRSA Strain 43300 [3])	inhibition at 40 µM (MRSA Strain 43300 [3])	growth curve versus untreated control (in words) (planktonic bacteria; 1 μM)	growth curve versus untreated control (in words) (planktonic bacteria; 5 μM)	MIC (MRSA ATCC BAA-44 [4]; MRSA ATCC BAA-44, read-out: MIC)	MIC (MRSA ATCC BAA-44 [4]; [7])	MIC (MRSA ATCC BAA-44 [4]; [8])	% Biofilm Dispersion (5/40 μM) (MRSA Strain 1770; 5 μM)	% Biofilm Dispersion (5/40 μM) (MRSA Strain 1770; 40 μM)	% Biofilm Dispersion (5/40 μM) (MRSA Strain 1685 [5]; 5 μM)	% Biofilm Dispersion (5/40 μM) (MRSA Strain 1685 [5]; 40 μM)	% Biofilm Dispersion (5/40 μM) (MRSA Strain 43300 [6]; 5 μM)	% Biofilm Dispersion (5/40 μM) (MRSA Strain 43300 [6]; 40 μM)	fold enhancement of the MIC (MRSA ATCC BAA-44 [4]; benzyl side chain (2) versus n-butyl side chain (1))	biofilm dispersion activity (in words) (MRSA Strain 43300 [6]; MRSA strain 43 300)
CCCCC(Cl)(Cl)C1NC(=O)/C(=C/c2ccc(C(F)(F)F)cc2)O1 (stereo not drawn) [Compound 1, (Z)-2-(1,1-dichloropentyl)-5-(4-(trifluoromethyl)benzylidene)oxazolidin-4-one]	87%	45%	66%	59%	54%	substantial inhibition of growth in the first 8 hours	substantial inhibition of growth in the first 8 hours	12000 mg/L (≈ 31400 µM)	12 mg/L (≈ 31.4 µM)	12 mg/L (≈ 31.4 µM)	52%	46%	24%	61%	23%	63%		
O=C1NC(C(Cl)(Cl)Cc2ccccc2)O/C1=C\c1ccc(C(F)(F)F)cc1 (stereo not drawn) [Compound 2, (Z)-2-(1,1-dichloro-2-phenylethyl)-5-(4-(trifluoromethyl)benzylidene)oxazolidin-4-one]	69%	19%	17%	41%	63%	modest deviation from the untreated control	moderate growth inhibition in the first 8 hours		6 mg/L (≈ 14.4 µM)	6 mg/L (≈ 14.4 µM)	29/− %		15/− %		37/− %		2 fold	no dose-dependent dispersion activity
